Assay results from patent publication US20180103845A1, “METHOD FOR ASSESSING IRRITANCY TO BIOLOGICAL SAMPLES” (OLYMPUS CORPORATION, priority 2016, published 2018).

Test system: human skin models based on SkinEthic RHE
Assay: Skin irritation test on three-dimensional human skin model (TG439 exposure, Nuclear-ID live/dead nuclear fluorescence, 3D confocal imaging)
Protocol: As such a biological sample 1, a three-dimensional human skin model approved in the OECD Testing Guidelines (TG) 439 (In Vitro Skin Irritation: Reconstructed Human Epidermis Test Method), such as SkinEthic RHE (manufactured by SkinEthic, France) having a thickness of about 100 μm, is favorably used. […] For irritancy assessment, dermal tissue may be contained in addition to the epidermis.
The chemical treatment step S1 is carried out in accordance with TG439. […]
Next, in the fluorescence labeling step S2, the nuclei of the cells in the biological tissues are fluorescence-labeled with a predetermined fluorescent marker. For fluorescence labeling, for example, a first fluorescent dye that specifically labels the nuclei of living cells, and a second fluorescent dye that emits fluorescence of a wavelength different from that of the first fluorescent dye and that specifically labels the nuclei of dead cells are used. […]
Next, in the image acquisition step S3, fluorescence images of the nuclei of living cells and the nuclei of dead cells at different depth positions in the biological sample are acquired using a fluorescence microscope.
FIGS. 5 and 6 show fluorescence images of biological samples exposed to 1% and 10% Triton-X, respectively. […] FIGS. 9 and 10 show fluorescence images of biological samples exposed to PBS and a 5% SDS solution, as controls. […]

Compound	structures such as the nuclei of dead cells (human skin model exposed to 5% SDS solution, positive control (FIG. 10))	three-dimensional structures of cells, such as the nuclei (human skin model exposed to 1% and 10% chemical (FIGS. 5 to 8), 42 min exposure, 42 h culture per TG439)
CCCCCCCCCCCCOS(=O)(=O)[O-].[Na+] [SDS, sodium dodecyl sulphate]	disrupted	–
Triton-X	–	preserved
